Reference: US20230158034A1, “CO-TREATMENT WITH CDK4/6 AND CDK2 INHIBITORS TO SUPPRESS TUMOR ADAPTATION TO CDK2 INHIBITORS” (Pfizer Inc., priority 2020, published 2023)

Key:
[1] = test system: CDK2 activity (DHB sensor phosphorylation); experiment: DHB-based CDK2 activity sensor, single-cell time-lapse imaging (C/N ratio); set-up: species or system human
Description: (§1) The DHB sensor is localized to the nucleus when it is not phosphorylated. Upon phosphorylation, the nuclear localization signal is masked, the nuclear export signal is unmasked, and the sensor steadily translocates to the cytoplasm in response to increasing CDK2 activity (FIG. 1A). Thus, kinase activity can be quantified by the ratio of the cytoplasmic to nuclear fluorescence intensity (C/N ratio) of the DHB sensor. […] Asynchronously cycling cells were first imaged for approximately 20 hr in the absence of drug to establish the cell-cycle phase of each cell; the movie was then paused to add drug, and then imaging was continued for another 1-2 days. Because the cells were cycling asynchronously, all cell-cycle phases with one drug treatment were sampled. This allowed the present inventors to computationally isolate traces for cells that received drug at any time since the completion of anaphase.
(§2) Cells were seeded at least 24 hr prior to imaging in phenol-red-free full-growth medium in glass-bottom 96-well plates (CellVis P96-1.5H-N) that were coated with collagen prior to seeding. The seeding density was chosen such that the cells would remain sub-confluent until the end of the imaging period. Cells were first imaged for 16-20 hr in full-growth media without drug. The movie was then briefly paused and the full-growth media was replaced with full-growth media containing drug at the desired concentration. The plate was then re-inserted into the microscope and aligned to its prior position and imaging was continued for an additional 24-48 hr. Images were acquired every 12 min (for MCF10A or RPE-hTERT) or every 20 min (for MCF7 or OVCAR3) on a Nikon Eclipse Ti or Ti2 microscope with a 10×0.45 NA objective in a humidified, 37° C. chamber at 5% CO2. Exposure times for all movies for all channels were kept under 500 ms per timepoint to minimize phototoxicity. Cell tracking was performed using published MATLAB scripts (Cappell et al., 2016), as described previously (Arora et al., 2017). The tracking code is available for download at https://github.com/scappell/Cell_tracking. Cell counts over time were obtained by counting the number of segmented nuclei in each frame of the movie.
Asynchronously cycling cells that divided and received drug treatments during the imaging period were initially segmented into categories based on the cells' time of anaphase relative to the time of drug addition. These cells were then additionally subcategorized based on their DHB cytoplasmic/nuclear (C/N) ratio after the mitotic event. C/N ratio was calculated by quantifying the ratio of cytoplasmic to nuclear mean DHB fluorescence, with the cytoplasmic component calculated as the mean of the top 50th percentile of a ring of pixels outside of the nuclear mask.
Cells were classified as CDK2^inc if the DHB C/N ratio was above 0.5 units 3 hr after anaphase, otherwise they were classified as CDK2^low. Figure legends indicate whether only CDK2^inc cells or whether all cells are plotted. The median of the single-cell traces in a subcategory was then used to create median trace with 95% confidence interval representative of the particular subcategory. All cell trace analysis was done using custom MATLAB scripts and code is available upon request.

[2] = test system: MCF10A, RPE-hTERT, MCF7 and OVCAR3 cells; experiment: Cell-cycle progression, mitosis and proliferation by time-lapse imaging; type: cell-based, human
Description: as §1, §2

[3] = test system: Rb, Nucleolin, Cdc6 and Nbs1 phosphorylation; experiment: Immunofluorescence and western blotting of endogenous CDK2 substrates; type: cell-based, human; details: for Rb phosphorylation: 1 hr palbociclib treatment
Description: Cells were fixed for 15 minutes with freshly prepared 4% paraformaldehyde, washed twice with PBS, and incubated with a blocking buffer (3% BSA in PBS) for 1 hr at room temperature. Permeabilization was carried out using 0.2% Triton-X 100 for 15 min at 4° C. Primary antibody was diluted in blocking buffer and incubated with cells overnight at 4° C. followed by three washes with 1×PBS. Secondary antibodies conjugated to Alexa Fluor 488, Alexa Fluor 546 or Alexa Fluor 647 were incubated for 1 hr followed by three washes with 1×PBS. DNA was stained using Hoechst 33342 dye for 10 minutes at 1:10000 (ThermoFisher H3570). Images were acquired on a Nikon Eclipse Ti or Ti2 microscope with a 10×0.45 NA objective. DNA content was determined by taking the integrated intensity of each cell's Hoechst signal. Cells were delineated as 3-4N DNA content by plotting a histogram of DNA content and drawing a threshold and the end of the 2N peak.
Lysates were prepared using 1×LDS sample buffer (ThermoFisher NP007) using equal numbers of cells. Proteins were separated using NuPAGE precast polyacrylamide gels (ThermoFisher NP0301). Total protein was quantified using Azure Red Dye (Azure Biosystems AC2124) and was used to normalize the signal from antibodies of interest. Primary antibodies used are specified under the “Antibodies” section. HRP-conjugated or IR700 and IR800 labeled fluorescent secondary antibodies were used for visualization (Cell Signaling Technology 7074 and 7076).

[4] = PF3600, MCF10A, MCF7 and RPE-hTERT cells

SMILES	effect on DHB sensor phosphorylation, cell-cycle progression, or the timing of mitosis ([1]; 1 μM palbociclib added 5 hr or later after anaphase/mitosis, MCF10A)	cell-cycle arrest ([2]; 1 μM palbociclib (after the upcoming mitosis) or 9 μM RO3306 (toward end of cell cycle), MCF10A)	sensitivity to palbociclib ([2]; MCF10A, MCF7 and RPE-hTERT cells)	sensitivity to palbociclib ([2]; OVCAR3 cells (amplification of cyclin E))	Rb phosphorylation ([3]; cells with 2N DNA content)	Rb phosphorylation ([3]; cells with 3-4N DNA content)	DHB sensor phosphorylation behavior ([1]; 25 nM PF3600, MCF7)	DHB sensor phosphorylation behavior ([1]; 100 nM PF3600, MCF7)	cells that initially responded ([1]; PF3600)	rebound of DHB sensor phosphorylation ([1]; PF3600, OVCAR3 cells)	onset of rebound in DHB sensor phosphorylation [1, 4]	time until DHB sensor phosphorylation returned to pre-treatment levels [1, 4]	cell proliferation and mitoses ([2]; 25 nM PF3600, OVCAR3 cells, remainder of the imaging period)	mitosis ([2]; 100 nM PF3600, MCF7)	cell-cycle progression and mitosis after PF3600 [2, 4]	intermitotic times [2, 4]	Rb and Nucleolin phosphorylation by immunofluorescence ([3]; 100 nM PF3600, MCF10A cells with 3-4N DNA content)
CC(=O)c1c(C)c2cnc(Nc3ccc(N4CCNCC4)cn3)nc2n(C2CCCC2)c1=O [palbociclib]	no immediate effect	CDK2^low G0 arrest	palbociclib-sensitive	resistant	dephosphorylation of Rb	no effect											
C[C@@]1(O)CCC[C@H]1n1c(=O)c(C(F)F)cc2cnc(NC3CCN(S(C)(=O)=O)CC3)nc21 [PF3600, 6-(difluoromethyl)-8-[(1R,2R)-2-hydroxy-2-methylcyclopentyl]-2-{[1-(methylsulfonyl)-piperidin-4-yl]amino}pyrido[2,3-d]pyrimidin-7(8H)-one]							drop-rebound behavior	brief rebound followed by long-lived suppression of DHB phosphorylation	100%	did not rebound	1 to 2 h	≤ 5 h	inhibited cell proliferation and prevented all further mitoses	blocked mitosis	cell-cycle progression continued, and cells eventually completed mitosis	longer intermitotic times	transient reduction in Rb and Nucleolin phosphorylation followed by a rebound
